Measured values published in patent US9512139B2, “Conformationally constrained, fully synthetic macrocyclic compounds” (POLYPHOR AG, priority 2009, dated 2016).

Assays:
[1] = test system: Wnt/Beta-Catenin pathway (LEF-TCF-bla SW480 cells); assay: Wnt/Beta-Catenin (APC-/-) LEF-TCF-bla SW480 inhibitor screen, constitutively activated; assay type: cell-based; conditions: Homo sapiens, SW480; for IC50: read-out: TCF/LEF receptor gene activity IC50; for inhibition at 10 µM: read-out: TCF/LEF receptor gene activity [% inhibition at 10 μM]
Description: (§1) 3. Assays for the Wnt-Pathway
(§2) For determining the activity of the test compounds on the Wnt-pathway each substances war subjected to two distinct assays: The first (Wnt/Beta-Catenin) assay screened for inhibitors of the Wnt-pathway while the second (MAPK/MEK/B-raf) was conducted in order to confirm that the test compounds modulate the β-catenin-dependent, canonical Wnt pathway and are not acting via a possibly competing β-catenin-independent, noncanonical Wnt messaging system.
(§3) Both assays were performed and analyzed with a Tecan Safire^2 fluorescence plate reader.
Wnt/Beta-Catenin (APC−/−)—LEF-TCF-bla SW480—Inhibitor Screen, Constitutively Activated
(§4) LEF-TCF-bla SW480 cells are thawed and resuspended in Assay Media (OPTI-MEM, 0.5% dialyzed FBS, 0.1 mM NEAA, 1 mM Sodium Pyruvate, 100 U/mL/100 μg/mL Pen/Strep) to a concentration of 312,500 cells/mL. 4 μL of a 10× serial dilution of ICG-001 (control inhibitor starting concentration, 10,000 nM) or compounds are added to appropriate wells of a TC-Treated assay plate. 32 μL of cell suspension (10,000 cells) is added to the wells. 4 μL of Assay Media is added to all wells to bring the final assay volume to 40 μL. The plate is incubated for 16-24 hours at 37° C./5% CO2 in a humidified incubator. 8 μL of 1 μM Substrate Loading Solution is added to each well and the plate is incubated for 2 hours at room temperature.

[2] = test system: MAPK/MEK/B-raf pathway (AP1-bla A375 cells); assay: MAPK/MEK/B-raf AP1-bla A375 inhibitor screen, constitutively activated (negative control of the Wnt assay); assay type: cell-based; conditions: Homo sapiens, A-375, read-out: AP receptor gene activity IC50
Description: as §1, §2, §3
MAPK/MEK/B-raf—APl-bla A375—Inhibitor Screen, Constitutively Activated
as §4, with “AP1-bla A375” for “LEF-TCF-bla SW480”, “Raf1 Kinase Inhibitor” for “ICG-001”

CN1CC(=O)N2C[C@@H](NC(=O)c3cccc4ccccc34)C[C@H]2COc2ccc(F)cc2C(=O)N(C)[C@H](C(=O)NCc2ccc3ccccc3c2)CCC1=O [Ex. 503, (2S,11S,19aS)-15-fluoro-7,12-dimethyl-2-(1-naphthoylamino)-N-(2-naphthylmethyl)-5,8,13-trioxo-2,3,6,7,8,9,10,11,12,13,19,19a-dodecahydro-1H,5H-pyrrolo[2,1-c] [1,4,7,12]benzoxatriazacyclopentadecine-11-carboxamide]
IC50 [1]: 5.8 µM | inhibition at 10 µM [1]: 68% | IC50 [2]: > 50 µM

CN1CC(=O)N2C[C@@H](NC(=O)c3cccc(Cl)c3)C[C@H]2COc2ccc(F)cc2C(=O)N(C)[C@H](C(=O)NCc2cccc3ccccc23)CCC1=O [Ex. 502, (2S,11S,19aS)-2-[(3-chlorobenzoyl)amino]-15-fluoro-7,12-dimethyl-N-(1-naphthylmethyl)-5,8,13-trioxo-2,3,6,7,8,9,10,11,12,13,19,19a-dodecahydro-1H,5H-pyrrolo[2,1-c] [1,4,7,12] benzoxatriazacyclopentadecine-11-carboxamide]
IC50 [1]: 5.5 µM | inhibition at 10 µM [1]: 82% | IC50 [2]: > 50 µM
